From US9834535B2, “Sulfamate derivative compounds for use in treating or alleviating pain” (Bio-Pharm Solutions Co., Ltd., priority 2013, dated 2017)

Tests used:
SNL model = assay: Antiallodynic activity on Chung model (SNL, spinal nerve ligation; von Frey); type: in vivo, Sprague-Dawley rats; settings: rat, oral, 0.5 h; for ED50: von Frey
Protocol: Male. Sprague-Dawley rats (200-220 g, Orient Bio, Korea) were habituated for 1 week before the experiment and allowed free access to food and water throughout the experimentation. Room temperature and humidity were maintained at 24±2° C. and 50±10%, respectively. Neuropathic surgery (SNL, Spinal nerve ligation) model was clone as described in Kim and Chung (1992). Briefly, animal under gaseous anesthesia with isoflurane a 4:4 flow ratio of NO2. The left lumber spinal nerve L5 and L6 were isolated and tightly ligated with 4-0 silk thread. The wound was treated with a gentamicin antibiotics solution (4 mg/kg, 4 ul/g, bw), and the wound muscle was closed with cat cut chrom 4/0 thread and skin was closed dafilon 4/0 tread. Sham controls were prepared in the same manner as the spinal nerves were exposed, but no ligated L5 and L6 nerves. But, vehicle controls were identical to SNL model, except for administration of vehicles.
(§1) Tactile sensitivity (Mechanical allodynia) was evaluated using von Frey monofilaments before and after treatment and animals were used withdrawal threshold value was less than 4 g. One week after surgery, SNL-operated animals (n=4˜6), sham-operated animals (n=4˜10) and vehicle-operated animals (n=4˜13) were tested for tactile sensitivity with von Frey monofilaments 3 trials in each animal. All Animals were placed in a stainless steel mashed chamber and habituated for 30 min in the test box. The tactile sensitivity for ipsilateral hind paw was measured using the up-and-down method (Dixon, 1980) with seven von Frey monofilaments (0.4, 1, 2, 4, 6, 8, and 15 g) to 3 trials. Tactile sensitivity test was followed by Dixon's method (Dixon, 1980). The 50% paw withdrawal threshold for each paw was calculated using the following formula: [Xth] log=[vFr] log+ky where [vFr] is the force of the last von Frey used, k=0.2249 which is the average interval (in log units) between the von Frey monofilaments, and y is a value that depends upon the pattern of withdrawal responses (Dixon, 1980).
All animals were fasted 18 h before the administration of the compounds. The antiallodynic effect of the compounds were evaluated at the various dose (n=5˜6), orally administrated in a volume of 5 ul/g, bw in a vehicle of 30% (v/v) PEG 400 or 20% (v/v) Tween 80 or Saline. […]
The relative values compared to the sham group (% control) were calculated and shown in Table 5, which show an antiallodynic effect of the test compounds on SNL model in rats.

[1] = test system: hot plate withdrawal latency; assay: Hot-plate test; type: in vivo, ICR mice; settings: mouse, oral
Protocol: To examine the pain relief effect of the sulfamate derivative compounds, a hot-plate test was conducted in general pain animal model referring to Current Protocols in Neuroscience; Behavioral Neuroscience Unit 8.9.
ICR mice (male, 30-35 g: Orient Bio, Korea) were habituated before test in test room for 1 hour. Animals were fasted 2 hr before administration of compounds. […] All compounds were dissolved in a vehicle of 30% (v/v) PEG 400 or 20% (v/v) Tween 80. The control group was treated the vehicle without compounds.
[…] (Hu, X. et al, 2008), and then, measured as the withdrawal latency (cut-off time: 30 sec) time until the point when each mouse was taking off a paw from the plate, shaking, licking a paw or hind leg, or jumping from the plate.

[2] = test system: tail-flick withdrawal latency; assay: Tail-flick test; type: in vivo, ICR mice; settings: mouse, oral
Protocol: To examine the pain relief effect of the sulfamate compounds, a tail-flick test was conducted in general pain animal model referring to Current Protocols in Neuroscience; Behavioral Neuroscience Unit 8.9.
ICR mice (male, 25-30 g; Orient Bio, Korea) were habituated before test in test room for 1 hour. Animals were fasted 2 hr before administration of compounds. Each of Compound was orally administered at the close of 150 mg/kg, 10 ul/g, bw (n=7˜10/group). All compounds were dissolved in a vehicle of 30% (v/v) PEG 400 or 20% (v/v) Tween 80. The control group was treated the vehicle without compounds.
After the administration of compounds, the mice tail were put on a tail-flick analgesia meter. To avoid tissue damage, maximal exposure time to pain stimuli was restricted to 15 s. The withdrawal latency was measured as the time to the point when each mouse response to the stimulus. The relative values compared to the control (% control) were calculated.
The relative values compared to the sham were calculated and shown in Table 12, which show effect of the compound of examples on tail-flick test in […].

CFA-induced pain model = assay: Antiallodynic activity on Complete Freund's Adjuvant (CFA)-induced inflammatory pain model (von Frey); type: in vivo, Sprague-Dawley rats; settings: Rattus norvegicus, ip, 0.5 h, 0.5 h, read-out: CFA model: effect (%) at the concentration administered
Protocol: Male, Sprague-Dawley rats (200-220 g, Nara Bio, Korea) were habituated for 1 week before surgery and allowed free access to food and water throughout the experimentation. Room temperature and humidity were maintained at 24±2° C. and 50±10%, respectively.
CFA-induced inflammatory pain was induced by the procedure of Nagakura et al. (2003) and Gregory P. et al. (2010) with minor modifications. CFA (sigma, USA) was injected in the left plantar with a 100 ul volume under gaseous anesthesia with isoflurane a 4:4 flow ratio of NO2 Sham controls were injected with 100 ul of saline and vehicle controls were identical to CFA infusion model, except for administration of vehicles.
as §1, with “treatment,” for “treatment”, “CFA-infused” for “SNL-operated”, “(n=12),” for “(n=4˜10)”, “(n=17)” for “(n=4˜13)”
[…] The test was performed peak time of efficacy (0.5 hr) after compound administration.
The relative values compared to the sham (% control) were calculated and shown in Table 4, which show an antiallodynic effect of the compound of Examples on CFA-induced pain model in rats.

[3] = test system: Post operation-induced pain model; assay: Antiallodynic activity on post operative-induced pain model (von Frey); type: in vivo, Sprague-Dawley rats; settings: 2 mg/kg, 0.5 h, rat, intraperitoneal
Protocol: Male Sprague-Dawley rats′(Orient Bio, Korea), 300˜320 g, total of 201 rats were used (details in Table 7). Rats were habituated at least 3 clays before surgery and free access to food and water (room temperature and humidity were maintained at 24±2° C. and 50±10%, respectively). The process of performing the post-operation model's surgery was adapted from Brennan et al (1996). At first, rats with allodynia (threshold valueless than 8 g) were excluded in Pre-von Frey Test. During the post-operation surgery, rats were anesthetized under gaseous anesthesia with 2% isoflurane. Rats were laid face down on a plate fixed at 37° C. to prevent against hypothermia. The ipsilateral plantar aspect (left side) of the hind paw was prepared in a sterile manner with a 10% povidone-iodine solution. […]
For efficacy measure, the threshold value of group C was assigned 100% efficacy, and the percentage of the threshold values of group A compared to group C (for each different dose level) were calculated as the efficacies. Base on these efficacy values, ED50 was calculated using log fitting. […]
For pain threshold test, all animals were placed in a stainless steel meshed chamber and habituated for 30 min in the test box. The tactile sensitivity of the ipsilateral hind paw was measured using the up-and-down method (Dixon, 1980) with seven von Frey monofilaments (0.4, 1, 2, 4, 6, 8, and 15 g) using 3 trials. […]

Structure (SMILES): CC1(C)O[C@H](c2ccccc2F)[C@@H](COS(N)(=O)=O)O1 [Example 15, ((4R,5R)-5-(2-fluorophenyl)-2,2-dimethyl-1,3-dioxolan-4-yl)methyl sulfamate]
- ED50 (SNL model): 69.8 mg/kg
- ED50 ([1]; 0.5 h): 113 mg/kg
- tail-flick test: dose [2]: > 200 mg/kg

Structure (SMILES): CC1(C)O[C@@H](COS(N)(=O)=O)[C@H](c2ccccc2F)O1 [Example 16, ((4S,5S)-5-(2-fluorophenyl)-2,2-dimethyl-1,3-dioxolan-4-yl)methyl sulfamate]
- ED50 (SNL model): 24.6 mg/kg
- ED50 ([1]; 1 h): 116 mg/kg
- tail-flick test: dose [2]: > 200 mg/kg

Structure (SMILES): CC1(C)O[C@@H](COS(N)(=O)=O)[C@H](c2ccccc2I)O1 [Example 28, ((4S,5S)-5-(2-iodophenyl)-2,2-dimethyl-1,3-dioxolan-4-yl)methyl sulfamate]
- response vs control in vivo at 40 mg/kg (CFA-induced pain model; 40 mg/kg, rat, intraperitoneal): 17.8%
- response vs control in vivo at 90 mg/kg (SNL model; 90 mg/kg, read-out: SNL model: effect (%) at the concentration administered): 72.6%
- Hot plate test: effect (%) at the concentration administered ([1]; 100 mg/kg): ^#100 (126.4%)
- tail-flick test: dose [2]: > 200 mg/kg

Structure (SMILES): CC1(C)O[C@@H](COS([NH-])(=O)=O)[C@H](c2ccccc2Cl)O1.[Na+] [Example 177, sodium ((((4S,5S)-5-(2-chlorophenyl)-2,2-dimethyl-1,3-dioxolan-4-yl)methoxy)sulfonyl)amide]
- response vs control in vivo at 15 mg/kg (CFA-induced pain model): 67.2%
- Post Operation: effect (%) at the concentration administered [3]: ^#2 (64.4%, 0.5 h)
